Results: ChEMBL document CHEMBL4725320 (Bioorg Med Chem Lett, 2020)

What follows are compounds tested against T1, Nuclear receptor subfamily 1 group D member 1 (Homo sapiens, UniProt P20393) (assay: Agonist activity at Rev-Erb alpha (unknown origin) by FRET assay).
T1 sequence (P20393 whole entry): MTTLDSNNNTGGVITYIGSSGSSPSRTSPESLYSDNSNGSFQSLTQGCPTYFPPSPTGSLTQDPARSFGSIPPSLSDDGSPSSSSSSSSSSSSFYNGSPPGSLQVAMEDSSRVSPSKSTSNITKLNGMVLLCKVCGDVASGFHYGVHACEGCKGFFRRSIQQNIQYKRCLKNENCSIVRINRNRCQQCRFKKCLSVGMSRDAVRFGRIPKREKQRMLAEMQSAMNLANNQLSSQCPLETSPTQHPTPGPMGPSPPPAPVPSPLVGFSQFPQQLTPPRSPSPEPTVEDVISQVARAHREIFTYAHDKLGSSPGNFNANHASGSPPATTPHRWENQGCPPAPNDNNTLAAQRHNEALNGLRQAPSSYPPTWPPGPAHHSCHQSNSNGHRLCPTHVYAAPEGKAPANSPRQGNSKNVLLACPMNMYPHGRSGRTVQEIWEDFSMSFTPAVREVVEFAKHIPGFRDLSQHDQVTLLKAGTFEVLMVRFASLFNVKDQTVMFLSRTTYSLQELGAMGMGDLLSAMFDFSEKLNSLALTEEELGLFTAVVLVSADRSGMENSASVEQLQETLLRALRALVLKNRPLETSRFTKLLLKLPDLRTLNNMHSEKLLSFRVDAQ
Assay type: single protein

EC50 [nM] | Structure (SMILES)
< 5000 | FC(F)(F)c1ccc(-c2cncnc2)c(Oc2ccc3nnc(Cl)n3n2)c1
1130 | Cc1cc(F)ccc1-c1ccc(C(F)(F)F)cc1Oc1nn(C)c(=O)c2ccsc12
5510 | FC(F)(F)c1ccc(-c2ccc3ncc(Cl)n3c2)c(Oc2nn3ccnc3c3ccsc23)c1
< 1000 | FC(F)(F)c1ccc(-c2cccnc2)c(Oc2ccc3nnc(Cl)n3n2)c1
50 | Cc1cc(Cl)cc(CN(Cc2ccc(Cl)cc2)Cc2ccc([N+](=O)[O-])s2)c1
68 | CC(C)(C)Oc1ccc(OC[C@@H]2Cc3cc(F)ccc3CN2C(=O)c2cccc3ccccc23)cc1
520 | Cn1nc(Oc2cc(C(F)(F)F)ccc2-c2ccsc2Cl)c2sccc2c1=O
710 | CCCCCNC(=O)N1CCC(CN(Cc2ccc(Cl)cc2)Cc2ccc([N+](=O)[O-])s2)C1 (stereo not given) [SR9011]

The compounds below were run against Nuclear receptor subfamily 1 group D member 2 (Homo sapiens) (UniProt Q14995) (assay: Antagonist activity at Rev-Erb beta (unknown origin) by RORE-luciferase reporter assay).
Sequence of Nuclear receptor subfamily 1 group D member 2 (Homo sapiens) (Q14995 whole entry, looked up): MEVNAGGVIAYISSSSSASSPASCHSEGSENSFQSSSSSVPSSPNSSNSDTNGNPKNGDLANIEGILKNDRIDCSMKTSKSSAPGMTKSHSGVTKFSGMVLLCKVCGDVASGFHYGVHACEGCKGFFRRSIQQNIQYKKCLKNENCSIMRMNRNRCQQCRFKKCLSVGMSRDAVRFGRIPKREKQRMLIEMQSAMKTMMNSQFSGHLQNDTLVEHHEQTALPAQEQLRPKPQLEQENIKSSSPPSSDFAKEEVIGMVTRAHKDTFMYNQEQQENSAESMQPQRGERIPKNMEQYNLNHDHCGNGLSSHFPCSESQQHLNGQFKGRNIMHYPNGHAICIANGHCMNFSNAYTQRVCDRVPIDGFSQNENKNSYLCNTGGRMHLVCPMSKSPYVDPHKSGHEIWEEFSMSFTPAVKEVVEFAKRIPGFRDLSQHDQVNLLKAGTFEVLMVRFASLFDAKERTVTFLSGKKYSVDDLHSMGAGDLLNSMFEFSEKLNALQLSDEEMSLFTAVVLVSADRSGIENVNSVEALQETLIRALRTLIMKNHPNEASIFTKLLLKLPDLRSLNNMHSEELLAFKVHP

EC50 [nM] | Structure (SMILES)
30000 | CN1CCN(Cc2cc(CNC3(c4ccccc4F)CCCC3)ccc2O)CC1

What follows are compounds tested against T1, Nuclear receptor subfamily 1 group D member 1 (assay: Agonist activity at Rev-Erb alpha (unknown origin) by BMAL1-luciferase reporter assay).

Structure (SMILES) | EC50 [nM]
O=C(c1cccc2ccccc12)N1Cc2ccccc2CC1CNCc1ccccc1 (stereo not given) | 3000

The compounds below were run against T1, Nuclear receptor subfamily 1 group D member 1 (assay: Inverse agonist activity at Rev-Erb alpha LBD (unknown origin) by FRET assay).

EC50 [nM] | Structure (SMILES)
150 | COCCNc1oc(-c2ccc(N(C)Cc3ccc(Cl)cc3)cc2)nc1C#N

Each compound was assayed against T1, Nuclear receptor subfamily 1 group D member 1 (assay: Antagonist activity at Rev-Erb alpha (unknown origin) by BMAL1-luciferase reporter assay).

EC50 [nM] | Structure (SMILES)
1300 | O=C(Nc1ccccc1)N1CCC(CN(Cc2ccc(Cl)cc2)Cc2ccc([N+](=O)[O-])s2)CC1
470 | CCOC(=O)C1Cc2ccccc2CN1C(=O)c1ccc(SC)s1 (stereo not given)
2050 | Cc1cc(Cl)cc(CN(Cc2ccc(Cl)cc2)Cc2ccc([N+](=O)[O-])s2)c1
1300 | CCOC(=O)C1Cc2ccccc2CN1C(=O)c1ccc(C)o1 (stereo not given)
